# Data reported in patent US20100197610A1, “FRUCTOSE 1, 6 BISPHOSPHATE - A NOVEL ANTICONVULSANT DRUG” (Baylor College of Medicine, priority 2007, published 2010).
# Assays:
# [1] = Capillary depletion of brain samples (FDP in stripped vs whole cortex); format: in vivo, Sprague-Dawley rats
# Experimental: Actual levels of FDP were determined by monitoring absorbance of reduced nicotinamide adenine dinucleotide (NADH) and treating the sample with aldolase (EC 4.1.2.13, 45 units mg-1 diluted 1:27 with distilled water), the enzyme which cleaves FDP into dihydroxyacetone phosphate (DAP) and D-glyceraldehyde 3-phosphate (GAP). DAP and GAP are interconverted by the enzyme triosephosphate isomerase (TIM, EC 5.3.3.1, 5290 units mg-1 diluted 1:120 with distilled water). […] After 5 min the absorbance was read 3 times at 340 nm, each reading 3 min apart. The average of these readings is the initial absorbance (Ai). This step removes any DAP or GAP in the sample and determines the baseline absorbance. Aldolase (0.01 ml) was then added and mixed to cleave FDP into DAP and GAP. Nine minutes after addition of the aldolase, the final absorbance (Af) was determined by 3 readings at 340 nm, each 6 minutes apart. The concentration of FDP in the sample was proportional to the difference in the initial and final absorbance. Two moles of NADH are oxidized for each mole of FDP. Blanks and a FDP standard sample were run in parallel with every assay. Each blank had 1.6 ml of the TEA buffer, 1.4 ml water and the mixture of TIM and GDH. […] Levels of FDP in blood were determined per ml, while levels in tissue samples were determined as a function of tissue weight. […]
# brain slices = assay: Uptake of FDP in brain slices in vitro; format: in vitro ADME, Sprague-Dawley rats; settings: incubation 1 hour in 500 μg ml-1 FDP, then washed
# Experimental: Actual levels of FDP were determined by monitoring absorbance of reduced nicotinamide adenine dinucleotide (NADH) and treating the sample with aldolase (EC 4.1.2.13, 45 units mg-1 diluted 1:27 with distilled water), the enzyme which cleaves FDP into dihydroxyacetone phosphate (DAP) and D-glyceraldehyde 3-phosphate (GAP). DAP and GAP are interconverted by the enzyme triosephosphate isomerase (TIM, EC 5.3.3.1, 5290 units mg-1 diluted 1:120 with distilled water). Glycerol-3-phosphate dehydrogenase (GDH, EC 1.1.1.8, 252 units mg-1 diluted 1:100 with distilled water) catalyzes the reduction of DAP by NADH. […] After 5 min the absorbance was read 3 times at 340 nm, each reading 3 min apart. The average of these readings is the initial absorbance (Ai). This step removes any DAP or GAP in the sample and determines the baseline absorbance. […] Nine minutes after addition of the aldolase, the final absorbance (Af) was determined by 3 readings at 340 nm, each 6 minutes apart. The concentration of FDP in the sample was proportional to the difference in the initial and final absorbance. […] Levels of FDP in blood were determined per ml, while levels in tissue samples were determined as a function of tissue weight.
# Additional experiments determined the uptake of FDP in brain slices in vitro. […]
structure (smiles),measurement,setting,value
"O=C(COP(=O)(O)O)[C@@H](O)[C@H](O)[C@H](O)COP(=O)(O)O [F1,6BP, Fructose-1,6-bisphosphate]",ratio of FDP in the stripped cortex to the FDP in whole cortex,"[1]; animals treated with FDP, n=7",0.91±0.01
same,levels of FDP in the endothelial cells compared to control,[1]; sacrificed ≦2 hours or more than 12 hours after FDP,no difference
same,tissue levels of FDP in brain slices,brain slices,0.22 ± 0.013 mg/g
